According to the supplement of paper PMC11208160:
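Also: IS621 recombinase and bridge RNA in Escherichia coli cells.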

Test: recombinant barcode read abundance after kanamycin selection (control-corrected) (log10(CPM+1)); higher = more efficient recombination; sequences stand for … in AGTGCAGAGAAAATCGGCCAGTTTTCTCTGCCTGCAGTCCGCATGCCGT…AGATTTATGCAGCGGACTGCCTTTCTCCCAAAGTGATAAACCGGACAGTATCATGGACCGGTTTTCCCGGTAATCCGTATTTGCAAGGTTGGTTTCACT; site = the 11-nt target
Summary of the method: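 Duplicate cultures were plated either on chloramphenicol/ampicillin LB agar, serving as control, or on chloramphenicol/ampicillin/kanamycin with 0.1 mM IPTG. These came from a pooled E. coli library co-electroporated with a donor plasmid, each member pairing a target with an IS621 bridge RNA target-binding loop. Recombination efficiency equals averaged, control-corrected counts per million of recombinant-junction barcodes. It is listed as log10(CPM+1).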
With “GGACGCTCTTGGGTTCTAACCTGTTGCCT (site GGTCGCTCTAG)” the “recombinant barcode read abundance (log10)” value was 0.113.
In the case of “GGACGGCCTTGGGTTCTAACCTGTTGCGT (site CTACGGCCTAC)”, the “recombinant barcode read abundance (log10)” value is reported as 0.152.
In the case of “GGACGGCCTTGGGTTCTAACCTGTTGCGT (site GGACGGCCTAC)”, the “recombinant barcode read abundance (log10)” value is reported as 2.53.
For “GGACGGGCTTGGGTTCTAACCTGTTGCAG (site GAACGGGCTCC)”, the “recombinant barcode read abundance (log10)” value was 0.0984.
In the case of “GGACGGGCTTGGGTTCTAACCTGTTGCAG (site GGACGGGCTCT)”, the “recombinant barcode read abundance (log10)” value is reported as 2.48.
In the case of “GGAGACGCTTGGGTTCTAACCTGTTGCCT (site GGAGAAGCTAG)”, the “recombinant barcode read abundance (log10)” value is reported as 0.344.
In the case of “GGAGACGCTTGGGTTCTAACCTGTTGCCT (site GGAGACGCTAG)”, the “recombinant barcode read abundance (log10)” value is reported as 1.32.
With “GGAGACGCTTGGGTTCTAACCTGTTGCCT (site GGAGAGGCTAG)” the “recombinant barcode read abundance (log10)” value was 0.676.
For “GGAGACGCTTGGGTTCTAACCTGTTGCCT (site GGAGATGCTAG)”, the “recombinant barcode read abundance (log10)” value was 0.235.
In the case of “GGAGCACCTTGGGTTCTAACCTGTTGCCT (site GGAGCACCTAG)”, the “recombinant barcode read abundance (log10)” value is reported as 2.38.
In the case of “GGAGCACCTTGGGTTCTAACCTGTTGCCT (site GGAGCAGCTAG)”, the “recombinant barcode read abundance (log10)” value is reported as 0.0718.
In the case of “GGAGCGTCTTGGGTTCTAACCTGTTGCGT (site GGAGCGTCTAC)”, the “recombinant barcode read abundance (log10)” value is reported as 1.61.
With “GGAGCGTCTTGGGTTCTAACCTGTTGCGT (site GGCGCGTCTAT)” the “recombinant barcode read abundance (log10)” value was 0.299.
With “GGAGGGGCTTGGGTTCTAACCTGTTGCCT (site GGAGGGGCTAG)” the “recombinant barcode read abundance (log10)” value was 1.75.
For “GGAGGGGCTTGGGTTCTAACCTGTTGCCT (site TGAGGTGCTAG)”, the “recombinant barcode read abundance (log10)” value was 0.0107.
With “GGAGTGACTTGGGTTCTAACCTGTTGCTT (site GGAGTGACTAA)” the “recombinant barcode read abundance (log10)” value was 0.979.
With “GGAGTGACTTGGGTTCTAACCTGTTGCTT (site GGAGTGACTTA)” the “recombinant barcode read abundance (log10)” value was 0.176.
With “GGATAGACTTGGGTTCTAACCTGTTGCGT (site GGATACACTAC)” the “recombinant barcode read abundance (log10)” value was 0.107.
For “GGATAGACTTGGGTTCTAACCTGTTGCGT (site GGATAGACTAC)”, the “recombinant barcode read abundance (log10)” value was 1.95.
In the case of “GGATAGCCTTGGGTTCTAACCTGTTGCCT (site AGATAGCCTAG)”, the “recombinant barcode read abundance (log10)” value is reported as 0.902.
For “GGATAGCCTTGGGTTCTAACCTGTTGCCT (site CGATAGCCTAG)”, the “recombinant barcode read abundance (log10)” value was 0.0205.
For “GGATAGCCTTGGGTTCTAACCTGTTGCCT (site GGATAGCCTAG)”, the “recombinant barcode read abundance (log10)” value was 1.71.
For “GGATAGCCTTGGGTTCTAACCTGTTGCCT (site TGATAGCCTAG)”, the “recombinant barcode read abundance (log10)” value was 0.239.
With “GGATATCCTTGGGTTCTAACCTGTTGCCT (site GGATATCCTAG)” the “recombinant barcode read abundance (log10)” value was 0.645.
For “GGATATCCTTGGGTTCTAACCTGTTGCCT (site TGAAATCCTAG)”, the “recombinant barcode read abundance (log10)” value was 0.114.
With “GGATCGTCTTGGGTTCTAACCTGTTGCCT (site GGATCGTCTAG)” the “recombinant barcode read abundance (log10)” value was 1.44.
In the case of “GGATCGTCTTGGGTTCTAACCTGTTGCCT (site GGTTCCTCTAG)”, the “recombinant barcode read abundance (log10)” value is reported as 0.0567.
For “GGATTCTCTTGGGTTCTAACCTGTTGCCT (site GGACTCACTAG)”, the “recombinant barcode read abundance (log10)” value was 0.0575.
In the case of “GGATTCTCTTGGGTTCTAACCTGTTGCCT (site GGATTCTCTAG)”, the “recombinant barcode read abundance (log10)” value is reported as 1.83.
With “GGCAAGGCTTGGGTTCTAACCTGTTGCCT (site ACGGGTCCTCT)” the “recombinant barcode read abundance (log10)” value was 0.417.
In the case of “GGCAAGGCTTGGGTTCTAACCTGTTGCCT (site GGCAAGGCTAG)”, the “recombinant barcode read abundance (log10)” value is reported as 0.0617.
In the case of “GGCACCACTTGGGTTCTAACCTGTTGCGT (site GGCACCACTAC)”, the “recombinant barcode read abundance (log10)” value is reported as 1.58.
In the case of “GGCACCACTTGGGTTCTAACCTGTTGCGT (site GGCACTACTAC)”, the “recombinant barcode read abundance (log10)” value is reported as 0.108.
In the case of “GGCACTACTTGGGTTCTAACCTGTTGCGT (site GGCACCACTAC)”, the “recombinant barcode read abundance (log10)” value is reported as 0.661.
With “GGCACTACTTGGGTTCTAACCTGTTGCGT (site GGCACTACTAC)” the “recombinant barcode read abundance (log10)” value was 0.28.
For “GGCACTTCTTGGGTTCTAACCTGTTGCCT (site GGCACTTCTAG)”, the “recombinant barcode read abundance (log10)” value was 0.188.
For “GGCACTTCTTGGGTTCTAACCTGTTGCCT (site GGCTCTTCTAG)”, the “recombinant barcode read abundance (log10)” value was 0.136.
In the case of “GGCATGTCTTGGGTTCTAACCTGTTGCCT (site GGCATGTCTAG)”, the “recombinant barcode read abundance (log10)” value is reported as 1.15.
In the case of “GGCATGTCTTGGGTTCTAACCTGTTGCCT (site GGCTTGTCTAG)”, the “recombinant barcode read abundance (log10)” value is reported as 0.0534.
For “GGCCCGCCTTGGGTTCTAACCTGTTGCCT (site AGCCCGCCTAG)”, the “recombinant barcode read abundance (log10)” value was 0.0411.
In the case of “GGCCCGCCTTGGGTTCTAACCTGTTGCCT (site CGCCCGCCTAG)”, the “recombinant barcode read abundance (log10)” value is reported as 0.00686.
For “GGCCCGCCTTGGGTTCTAACCTGTTGCCT (site GGCCCGCCTAG)”, the “recombinant barcode read abundance (log10)” value was 0.734.
For “GGCCCGCCTTGGGTTCTAACCTGTTGCCT (site TGCCCGCCTAG)”, the “recombinant barcode read abundance (log10)” value was 0.0746.
With “GGCGATCCTTGGGTTCTAACCTGTTGCCT (site GACGATCCTAG)” the “recombinant barcode read abundance (log10)” value was 0.151.
For “GGCGATCCTTGGGTTCTAACCTGTTGCCT (site GCCGATCCTAG)”, the “recombinant barcode read abundance (log10)” value was 0.213.
With “GGCGATCCTTGGGTTCTAACCTGTTGCCT (site GGCGATCCTAG)” the “recombinant barcode read abundance (log10)” value was 1.15.
In the case of “GGCGATCCTTGGGTTCTAACCTGTTGCCT (site GTCGATCCTAG)”, the “recombinant barcode read abundance (log10)” value is reported as 0.059.
For “GGCGCGTCTTGGGTTCTAACCTGTTGCAT (site GGAGCGTCTAC)”, the “recombinant barcode read abundance (log10)” value was 0.0291.
In the case of “GGCGCGTCTTGGGTTCTAACCTGTTGCAT (site GGCGCGTCTAT)”, the “recombinant barcode read abundance (log10)” value is reported as 0.589.
In the case of “GGCGGCCCTTGGGTTCTAACCTGTTGCGG (site GACTGCCCTCC)”, the “recombinant barcode read abundance (log10)” value is reported as 0.103.
For “GGCGGCCCTTGGGTTCTAACCTGTTGCGG (site GGCGGCCCTCC)”, the “recombinant barcode read abundance (log10)” value was 2.31.
With “GGCGTGCCTTGGGTTCTAACCTGTTGCGT (site AAGAACTCTTG)” the “recombinant barcode read abundance (log10)” value was 0.0755.
For “GGCGTGCCTTGGGTTCTAACCTGTTGCGT (site GGCGTGCCTAC)”, the “recombinant barcode read abundance (log10)” value was 2.95.
In the case of “GGCGTGTCTTGGGTTCTAACCTGTTGCGG (site GACGTGTCTCG)”, the “recombinant barcode read abundance (log10)” value is reported as 0.125.
In the case of “GGCGTGTCTTGGGTTCTAACCTGTTGCGG (site GGCGTGTCTCC)”, the “recombinant barcode read abundance (log10)” value is reported as 2.07.
For “GGCTAGTCTTGGGTTCTAACCTGTTGCTT (site GGATTGTCTAA)”, the “recombinant barcode read abundance (log10)” value was 0.109.
For “GGCTAGTCTTGGGTTCTAACCTGTTGCTT (site GGCTAGTCTAA)”, the “recombinant barcode read abundance (log10)” value was 0.561.
With “GGCTCTACTTGGGTTCTAACCTGTTGCGG (site GGCTAGACTCC)” the “recombinant barcode read abundance (log10)” value was 0.0656.
With “GGCTCTACTTGGGTTCTAACCTGTTGCGG (site GGCTCTACTCC)” the “recombinant barcode read abundance (log10)” value was 0.326.
For “GGCTCTTCTTGGGTTCTAACCTGTTGCCT (site GGCACTTCTAG)”, the “recombinant barcode read abundance (log10)” value was 0.221.
With “GGCTCTTCTTGGGTTCTAACCTGTTGCCT (site GGCTCTTCTAG)” the “recombinant barcode read abundance (log10)” value was 0.332.
For “GGCTGTCCTTGGGTTCTAACCTGTTGCGT (site CTAAAAGCTTT)”, the “recombinant barcode read abundance (log10)” value was 0.0937.
In the case of “GGCTGTCCTTGGGTTCTAACCTGTTGCGT (site GGCTGTCCTAC)”, the “recombinant barcode read abundance (log10)” value is reported as 0.751.
With “GGGAACCCTTGGGTTCTAACCTGTTGCTG (site GGGAACCCTAA)” the “recombinant barcode read abundance (log10)” value was 0.0418.
For “GGGAACCCTTGGGTTCTAACCTGTTGCTG (site GGGAACCCTCA)”, the “recombinant barcode read abundance (log10)” value was 1.5.
In the case of “GGGAACCCTTGGGTTCTAACCTGTTGCTG (site GGGAACCCTGA)”, the “recombinant barcode read abundance (log10)” value is reported as 0.0561.
In the case of “GGGAACCCTTGGGTTCTAACCTGTTGCTG (site GGGAACCCTTA)”, the “recombinant barcode read abundance (log10)” value is reported as 0.867.
In the case of “GGGACAACTTGGGTTCTAACCTGTTGCCT (site GGGACAACTAG)”, the “recombinant barcode read abundance (log10)” value is reported as 0.0953.
With “GGGACAACTTGGGTTCTAACCTGTTGCCT (site GGGGTAACTAG)” the “recombinant barcode read abundance (log10)” value was 0.0828.
For “GGGACTACTTGGGTTCTAACCTGTTGCGG (site CGGGCTACTCC)”, the “recombinant barcode read abundance (log10)” value was 0.0949.
With “GGGACTACTTGGGTTCTAACCTGTTGCGG (site GGGACTACTCC)” the “recombinant barcode read abundance (log10)” value was 1.86.
With “GGGACTTCTTGGGTTCTAACCTGTTGCAT (site GGGACTTCTAT)” the “recombinant barcode read abundance (log10)” value was 0.937.
For “GGGACTTCTTGGGTTCTAACCTGTTGCAT (site GGGCCTTCTAT)”, the “recombinant barcode read abundance (log10)” value was 0.0615.
In the case of “GGGACTTCTTGGGTTCTAACCTGTTGCAT (site GGGGCTTCTAT)”, the “recombinant barcode read abundance (log10)” value is reported as 0.273.
For “GGGACTTCTTGGGTTCTAACCTGTTGCAT (site GGGTCTTCTAT)”, the “recombinant barcode read abundance (log10)” value was 0.164.
With “GGGATGGCTTGGGTTCTAACCTGTTGCCT (site GGGATGGCTAG)” the “recombinant barcode read abundance (log10)” value was 1.32.
With “GGGATGGCTTGGGTTCTAACCTGTTGCCT (site TGGATGGCTAG)” the “recombinant barcode read abundance (log10)” value was 0.0489.
